Assay results reported in PMC2680146 (Chemical biology & drug design, 2008).
Entries after “also recorded” stand apart in the source; their conditions may differ.

Legend:
[1] = target: PFTase; conditions: literature comparison value; ref [46]; cited from earlier work
[2] = test system: yPFTase; test: yPFTase-catalyzed prenylation, product analysis by HPLC; format: biochemical, Saccharomyces cerevisiae; conditions: FPP source pure FPP or photolysis product of 5 or 9
[3] = target: rPFTase (Rattus norvegicus, UniProt Q02293+Q04631); test: X-ray crystallography of rPFTase:FPP:15 complex; format: binding; conditions: FPP bound in presence of 15 vs PDB 1KZO
[4] = Photolysis; format: physicochemical; conditions: 300-400 nm light (λmax 350 nm)
[5] = test system: yPFTase; test: yPFTase substrate studies, continuous fluorescence assay; format: biochemical, Saccharomyces cerevisiae
[6] = λirrad 350 nm; ref [16]; cited from earlier work

rPFTase, sequence (Q02293 whole entry, one chain of several): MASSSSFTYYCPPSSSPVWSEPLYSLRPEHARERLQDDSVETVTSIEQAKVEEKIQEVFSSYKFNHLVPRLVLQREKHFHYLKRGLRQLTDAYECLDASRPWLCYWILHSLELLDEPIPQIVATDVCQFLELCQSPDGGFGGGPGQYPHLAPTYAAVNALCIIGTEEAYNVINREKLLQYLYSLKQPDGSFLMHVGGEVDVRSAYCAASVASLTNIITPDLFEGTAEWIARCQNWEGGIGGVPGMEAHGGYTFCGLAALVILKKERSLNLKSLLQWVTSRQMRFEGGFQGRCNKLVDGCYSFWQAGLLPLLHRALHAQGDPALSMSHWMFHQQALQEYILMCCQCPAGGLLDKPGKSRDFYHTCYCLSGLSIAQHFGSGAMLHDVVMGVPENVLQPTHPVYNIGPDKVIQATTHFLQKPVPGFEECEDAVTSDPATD

Row | Compound | prenylated product formed [2] | Qu1 (single-photon uncaging efficiency) ([4]; 25 mM NH4HCO3) | photolysis product ([4]; RP-HPLC) | substrate behaviour ([5]; prior to uncaging) | other results
1 | CVIM |  |  |  |  | IC50 [1]: 165 nM
2 | CC(C)=CCC/C(C)=C/CC/C(C)=C/CO[P@@](=O)(O)OP(=O)(O)O (stereo in doubt) [FPP, farnesyl diphosphate, reference compound] | same prenylated product |  |  |  | rms deviation over all FPP atoms [3]: 0.546 Å
3 | CC(C)=CCC/C(C)=C/CC/C(C)=C/COP(=O)(O)OP(=O)(O)OCc1ccccc1[N+](=O)[O-] [Compound 5, β-(2-nitrobenzyl)farnesyl diphosphate] | same prenylated product | 0.70 | release of farnesyl diphosphate; also recorded: efficiently release FPP upon irradiation | better substrate than compound 9; also recorded: poor substrates for PFTase | interference of photolysis byproducts with catalysis ([5]; after irradiation): do not interfere with catalysis in any way
4 | COc1cc(C(C)OP(=O)(O)OP(=O)(O)OP(=O)(O)OC[C@H]2O[C@@H](n3cnc4c(N)ncnc43)[C@H](O)[C@@H]2O)c([N+](=O)[O-])cc1OC (stereo partly shown) [DMNPE-ATP] |  |  |  |  | Qu1 (quantum efficiency) [6]: 0.07 mol·ein^-1; Uncaging Rate [6]: 18.0 s⁻¹
5 | COc1cc(C(C)OP(=O)(O)OP(=O)(O)OC/C=C(\C)CC/C=C(\C)CCC=C(C)C)c([N+](=O)[O-])cc1OC (stereo not drawn) [Compound 9, β-1-(4,5-dimethoxy-nitrophenyl)ethyl farnesyl diphosphate] | same prenylated product | 0.08 | release of farnesyl diphosphate; also recorded: efficiently release FPP upon irradiation | poorer substrate prior to uncaging; also recorded: poor substrates for PFTase | uncaging rate constant k ([4]; 25 mM NH4HCO3, RP-HPLC, first-order kinetics): 0.12 min⁻¹; rate of enzymatic prenylation relative to FPP ([5]; prior to uncaging): 7.6%
